21 molecules from patent US20220402917A1, “COMPOUND AS SMALL MOLECULE INHIBITOR PD-1/PD-L1 AND APPLICATION THEREOF” (MEDSHINE DISCOVERY INC., priority 2019, published 2022) can be followed below.

The target in assay [1] is T1, PD-L1 in MDA-MR-231 cells (Homo sapiens, UniProt Q9NZQ7).
T1 construct: endogenous in cells; host or cells: MDA-MB-231
The assay can be described thus: Effect on expression level of PD-L1 in MDA-MR-231 cells (FACS). The class given is cell-based. As to conditions: 24 hours incubation, FACS detection of cell surface PD-L1. The protocol:
Experimental Example 2: Using MDA-MR-231 Cells to Detect the Effect of Compounds on the Expression Level of PD-L1
The use of a triple-negative breast cancer cell line (MDA-MB-231) is an indirect method to assess PD-L1 endocytosis. PD-L1 molecules on the cell surface can be degraded by lysosomal and proteasome pathways, and small molecule inhibitors are added to induce PD-L1 endocytosis. After co-incubating small molecules with MDA-MB-231 cells for 24 hours, flow cytometry (Fluorescence-activated Cell Sorting, FACS) is used to detect the content of PD-L1 on the cell surface, which can indirectly reflect the effect of small molecule-induced PD-L1 endocytosis. Flow cytometry (FACS) is used to detect the effect of the compounds of the present disclosure on the expression level of PD-L1 in MDA-MR-231 cells.
Phosphate buffer (DPBS), 1640 medium, penicillin-streptomycin, fetal bovine serum, non-essential amino acids, 2-hydroxy-1-ethanethiol (2-ME), human interferon γ, LIVE/DEAD staining solution, staining buffer, fixation buffer, 0.25% trypsin, EDTA, anti-human PD-L1, anti-human PD-L1 isotype.
1640 complete medium preparation: 50 mL of fetal bovine serum, 5 mL of non-essential amino acids, 5 mL of penicillin-streptomycin and 0.5 mL of 2-hydroxy-1-ethanethiol were added to 439.5 mL of 1640 medium, and evenly mixed.
10 mM EDTA preparation: 1 mL of 0.5M EDTA was added to 49 mL of DPBS, and evenly mixed.
1) MDA-MB-231 cell counting and plating: The culture flask was taken out, the medium was removed and the culture flask was rinsed once with DPBS. After the culture flask was rinsed, 3 mL of 0.25% trypsin was added to the culture flask and the culture flask was placed in a 37° C. incubator for 1.5 min. The culture flask was taken out, 9 mL of 1640 complete medium was added to stop the reaction, the cells was transferred to a 50 mL centrifuge tube, and centrifuged at 1000 rpm for 5 min at 37° C. An appropriate volume of medium was added to re-suspend the cells according to the number of cells, and the number of cells was counted with a cell counter. The cell concentration was adjusted to 5×10^5 cells/mL with medium. Planking: A volume of 200 μL of cell suspension was added to each well of a 96-well plate, ensure that the number of cells in each well was 1×10^5. The cells were incubated overnight in an incubator. 2) Drug incubation: 100-fold dilution of compounds were prepared, and the drug was subjected to a 5-fold gradient dilution. 2 μL of each 100-fold dilution of compounds were added to each well. The cells were incubated in an incubator at 37° C. for 24 hours. 3) PD-L1 cell staining and FACS detection: the culture plate was taken out and the supernatant medium was discarded. The cells were washed once with 200 μL 1×PBS. 100 μL of EDTA (final concentration of 10 mM) was added to the cell suspension, and the cell suspension was treated at 37° C. for 10 min. Then after the cell suspension was centrifuged at 1500 rpm for 5 min, the cell suspension was washed once with 200 μL of staining solution. Staining: anti-human PD-L1 (2 μL per well) and LIVE/DEAD staining solution (1:1000) were diluted in staining solution, 50 μL of the staining solution was added to each well, and the staining was conducted at 4° C. for 30 min. Then the solution was washed twice with 200 μL of staining solution. Fixation: 100 μL of fixing solution was added to each well, the fixation was conducted at 4° C. for 15 min. The solution was then washed twice with 200 μL of staining solution, and 150 μL of solution was added to re-suspend the cells, followed by FACS detection.
Table 2 provides the effects of the compounds of the examples of the present disclosure on the expression level of PD-L1 in MDA-MR-231 cells.

In another assay the target is PD1/PD-L1 (Homo sapiens, UniProt Q9NZQ7). In words: NFAT activity test (TCR Activitor/PD-L1 CHO cells with PD-1/NFAT Reporter-Jurkat cells). The format is cell-based. Also noted: host or cells: TCR Activitor/PD-L1 CHO cells; PD-1/NFAT Reporter-Jurkat cells. The conditions noted are these: TCR Activitor/PD-L1 CHO cells + PD-1/NFAT Reporter-Jurkat cells, 5 hours, luciferase; for IC50: read-out: IC50, inhibitory activity on PD1/PD-L1 binding (NFAT activity test). The source says: Experimental Example 3: NFAT Activity Test
PD1/PD-L1, sequence (Q9NZQ7 19-290): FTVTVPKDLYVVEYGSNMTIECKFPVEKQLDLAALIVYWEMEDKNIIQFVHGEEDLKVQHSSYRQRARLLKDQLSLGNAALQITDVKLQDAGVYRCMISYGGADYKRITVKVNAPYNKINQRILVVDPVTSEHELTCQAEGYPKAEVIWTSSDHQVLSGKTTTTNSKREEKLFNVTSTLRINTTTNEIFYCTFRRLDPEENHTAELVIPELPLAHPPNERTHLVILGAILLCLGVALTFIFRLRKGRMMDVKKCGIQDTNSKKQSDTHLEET
The engineered T cell expresses PD-1 molecules and T cell receptor (TCR) on the surface, which can activate the NFAT signaling pathway of T cells after co-culturing with engineered antigen presenting cells (APCs). Expression of PD-L1 molecules on APCs can effectively attenuate the NFAT signaling pathway in T cells. PD-L1 inhibitors can be used effectively block the PD-1/PD-L1 regulatory mechanism, thereby reversing the weakened NFAT signaling pathway. After being pretreated with APC, the small molecule is co-cultured with T cells, then the expression of luciferase was detected to indirectly reflect the activation of the NFAT pathway in T cells.
The PD1/PD-L1 NFAT detection kit was purchased from BPS Biosciences. Birght-Glo reagent was purchased from Promega. Nivo multi-label analyzer (PerkinElmer).
The TCR Activitor/PD-L1 CHO cells with a growth confluence of 80% were plated into the plate at 35,000 cells per well and placed in a 37° C. cell culture incubator overnight; the compounds to be tested were diluted 5-fold to the 8th concentration, from 20 μM to 0.25 nM, and the DMSO concentration was 2%, a double-well experiment was set up. The TCR Activitor/PD-L1 CHO cell supernatant was discarded, 50 μl of compound working solution was added to each well, incubated at 37° C. for 30 minutes; after the incubation was completed, 50 μL of PD-1/NFAT Reporter-Jurkat cell suspension with a concentration of 4*10^5 cells/mL was added to each well, incubated at 37° C. for 5 hours. After the incubation was completed, 100 μL Bright-Glo was added to each well, and after mixing, the chemiluminescence signal was detected by a Nivo multi-label analyzer.
Using the equation (sample−Min)/(Max−Min)×100% to convert the raw data into inhibition rate, and the IC50 value can be obtained by curve fitting with four parameters (obtained from log(inhibitor) vs. response—Variable slope mode in GraphPad Prism). Table 3 provides the inhibitory activity of the compounds of the examples of the present disclosure on PD1/PD-L1 binding.

T1 sequence (Q9NZQ7 19-290): as above

In assay [1], `Cc1cc(C(=O)Nc2cccc(-c3cccc(NC(=O)c4ccc(CNCCO)cn4)c3Cl)c2Cl)nc2c1CCN(CCO)C2` [Compound 5] registered an IC50 of 0.0327 µM. On PD1/PD-L1, the “Maximum effect (induction fold)” value amounted to 3.68 induction fold and the IC50 is 0.0162 µM.
For `Cc1cc(C(=O)Nc2cccc(-c3cccc(NC(=O)c4ccc(CNCCO)cn4)c3C)c2Cl)nc2c1CCN(CCO)C2` [Compound 9] the same measures were 0.0411 µM, 3.77 induction fold and 0.0326 µM.
As to `Cc1cc(C(=O)Nc2cccc(-c3cccc(NC(=O)c4ccc(CNCCO)cn4)c3C)c2Cl)nc2c1CCN(C1CCNCC1)C2` [Compound 14], the IC50 in assay [1] came out at 0.0969 µM.
The molecule `COc1nc(-c2cccc(-c3cccc(NC(=O)c4cc(C)c5c(n4)CN(CC(=O)O)CC5)c3Cl)c2C)cnc1CN1CC(O)C1` [Compound 22] returned an IC50 in assay [1] of 0.0797 µM. Also, at PD1/PD-L1, the “Maximum effect (induction fold)” value came out at 3.79 induction fold and the IC50 stood at 0.0588 µM.
On to `COc1nc(-c2cccc(-c3cccc(NC(=O)c4cc(C)c5c(n4)CN(CCO)CC5)c3Cl)c2Cl)cnc1CN1CC(C)(O)C1` [Compound 25], for which the IC50 in assay [1] is 0.00997 µM. Besides, at PD1/PD-L1, the “Maximum effect (induction fold)” value was determined as 3.39 induction fold and the IC50 came out at 0.0292 µM.
The like results for `COc1nc(-c2cccc(-c3cccc(NC(=O)c4cc(C)c5c(n4)CN(C(C)CO)CC5)c3Cl)c2Cl)cnc1CN1CC(O)C1` (stereo not shown) [Compound 27] were, in that order, 0.0146 µM, 3.48 induction fold and 0.0289 µM.
The like results for `COc1nc(-c2cccc(-c3cccc(NC(=O)c4cc(C)c5c(n4)CN(CC(O)CO)CC5)c3Cl)c2Cl)cnc1CN1CC(O)C1` (stereo not shown) [Compound 30] were, in that order, 0.0105 µM, 4.80 induction fold and 0.0266 µM.
In the case of `COc1nc(-c2cccc(-c3cccc(NC(=O)c4cc(C)c5c(n4)CN(CCO)CC5)c3Cl)c2Cl)cnc1CNCCO` [Compound 31], the IC50 in assay [1] stood at 0.00858 µM. Besides, on PD1/PD-L1, the “Maximum effect (induction fold)” value came out at 4.12 induction fold and the IC50 is 0.0226 µM.
The like results for `COc1nc(-c2cccc(-c3cccc(NC(=O)c4cc(C)c5c(n4)CN(CCO)CC5)c3Cl)c2Cl)cnc1CN1CCC2(CNC(=O)C2)C1` (stereo not shown) [Compound 32] were, in that order, 0.00553 µM, 4.93 induction fold and 0.0522 µM.
For `COc1nc(-c2cccc(-c3cccc(NC(=O)c4cc(C)c5c(n4)CN(CCO)CC5)c3Cl)c2Cl)cnc1CN1CCC(CO)C1` (stereo not shown) [Compound 33] the same measures were 0.00699 µM, 4.14 induction fold and 0.0189 µM.
Regarding `COc1nc(-c2cccc(-c3cccc(NC(=O)c4cc(C)c5c(n4)CN(CCO)CC5)c3Cl)c2Cl)cnc1CN[C@H]1C[C@](C)(O)C1` [Compound 34], the IC50 in assay [1] is 0.0219 µM. Moreover, at PD1/PD-L1, the “Maximum effect (induction fold)” value is 4.09 induction fold and the IC50 was determined as 0.0447 µM.
For the molecule `COc1nc(-c2cccc(-c3cccc(NC(=O)c4cc(C)c5c(n4)CN(CCO)CC5)c3Cl)c2Cl)cnc1CN1CC(CO)C1` [Compound 35], the values for the IC50 (in assay [1]; on PD1/PD-L1) were 0.00518 µM and 0.0175 µM, respectively. Besides, the “Maximum effect (induction fold)” value on PD1/PD-L1 worked out at 4.44 induction fold.
For `COc1nc(-c2cccc(-c3cccc(NC(=O)c4nc(C)c5c(n4)CN(CCO)CC5)c3Cl)c2Cl)cnc1CN1CC(O)C1` [Compound 36], the IC50 in assay [1] was found to be 0.0958 µM. At PD1/PD-L1, the “Maximum effect (induction fold)” value came to 3.20 induction fold and the IC50 was 0.0465 µM.
The molecule `COc1nc(-c2cccc(-c3cccc(NC(=O)c4cc(C)c5c(n4)CN(CCO)CC5)c3Cl)c2Cl)ccc1CN1CC(O)C1` [Compound 37] yielded an IC50 in assay [1] of 0.0281 µM.
Regarding `COc1nc(-c2cccc(-c3cccc(NC(=O)c4cc(C)c5c(n4)CN(CCO)CC5)c3Cl)c2Cl)cnc1CNCC1CCC(=O)N1` (stereo not shown) [Compound 38], the results for the IC50 (in assay [1]; at PD1/PD-L1) were 0.00886 µM and 0.0508 µM, respectively. Moreover, the “Maximum effect (induction fold)” value at PD1/PD-L1 amounted to 4.40 induction fold.
`COc1nc(-c2cccc(-c3cccc(NC(=O)c4cc(C)c5c(n4)CN(CCO)CC5)c3Cl)c2Cl)cnc1CN1CC2(CC(O)C2)C1` [Compound 39] registered an IC50 in assay [1] of 0.00552 µM. For the same molecule, on PD1/PD-L1, the “Maximum effect (induction fold)” value is 4.62 induction fold and the IC50 was 0.0119 µM.
The like results for `COc1nc(-c2cccc(-c3cccc(NC(=O)c4cc(C)c5c(n4)CN(CCO)CC5)c3Cl)c2Cl)cnc1CN1CCCC1CO` (stereo not shown) [Compound 40] were, in that order, 0.0225 µM, 3.72 induction fold and 0.0461 µM.
Turning to `COc1cc(C(=O)Nc2cccc(-c3cccc(-c4cnc(CN5CC(O)C5)c(OC)n4)c3Cl)c2Cl)nc2c1CCN(CCO)C2` [Compound 41], the IC50 in assay [1] is 0.00527 µM; at PD1/PD-L1 it was 0.0292 µM. The “Maximum effect (induction fold)” value on PD1/PD-L1 was found to be 3.50 induction fold.
In the case of `COc1nc(-c2cccc(-c3cccc(NC(=O)c4cc(C#N)c5c(n4)CN(CCO)CC5)c3Cl)c2Cl)cnc1CN1CC(O)C1` [Compound 45], in assay [1], the IC50 was 0.00781 µM. On PD1/PD-L1, the “Maximum effect (induction fold)” value came out at 4.37 induction fold and the IC50 is 0.0454 µM.
For `COc1nc(-c2cccc(-c3cccc(NC(=O)c4cc(C(F)(F)F)c5c(n4)CN(CCO)CC5)c3Cl)c2Cl)cnc1CN1CC(O)C1` [Compound 46] the same measures were 0.0226 µM, 5.56 induction fold and 0.571 µM.
Regarding `COc1nc(-c2cccc(-c3cccc(NC(=O)c4cc(OC(F)F)c5c(n4)CN(CCO)CC5)c3Cl)c2Cl)cnc1CN1CCC(CO)C1` (stereo not shown) [Compound 64], on PD1/PD-L1, the “Maximum effect (induction fold)” value stood at 3.98 induction fold and the IC50 is 0.0165 µM.
